From patent US7914827B2, “Use of extracts or extractants of the guajacum types, said extracts or extractants bringing about phosphodiesterase-4 inhibition and method for producing the same” (Max Zeller Soehne AG, priority 2006, dated 2011)

Biological target: human phosphodiesterase-5 (PDE5) (Homo sapiens, UniProt O76074)
Experiment: PDE5 assay (3H-cGMP as tracer)
Assay type: biochemical
Settings: read-out: Inhibitory activity [%], PDE5

## CCCc1nn(C)c2c(=O)[nH]c(-c3cc(S(=O)(=O)N4CCN(C)CC4)ccc3OCC)nc12 [Sildenafil]
  inhibition at 1 pM: 5%
  inhibition at 0.0001 µM: 21%
  inhibition at 0.01 µM: 52%
  inhibition at 1 µM: 74%
